Measurements as given in ChEMBL document CHEMBL1151277, “Sesquiterpene chromones from Ferula fukanensis and their nitric oxide production inhibitory effects” (J Nat Prod, 2005).
In brackets after ≈: the same amount, converted by molar mass.

What follows are compounds tested on RAW264.7 (assay: Inhibition of LPS and IFN-gamma-induced iNOS mRNA expression in mouse RAW264.7 cells for 8 hrs by RT-PCR analysis). Settings: not given.
Assay type: functional, cell-based

| SMILES | Activity |
| --- | --- |
| CC(C)=CC(=O)/C=C(/C)CCC[C@]1(C)Oc2oc3cc(O)ccc3c(=O)c2[C@H]1C (relative stereo) [FUKANEFUROCHROMONE D] | Dose-dependent effect |

What follows are compounds tested on RAW264.7 (assay: Inhibition of LPS and IFN-gamma-induced nitric oxide production in mouse RAW264.7 cells after 16 hrs by Griess assay). Settings: RAW264.7, 16 h.
Assay type: functional, cell-based

| SMILES | IC50 [µg/mL] |
| --- | --- |
| CC(C)=CCC/C(C)=C/CC[C@]1(C)Oc2oc3cc(O)ccc3c(=O)c2[C@H]1C | 4.1 (≈ 10.7 µM) |
| CC(C)=CC(=O)C/C(C)=C/CC[C@]1(C)Oc2oc3cc(O)ccc3c(=O)c2[C@H]1C (relative stereo) [FUKANEFUROCHROMONE A] | 9.8 (≈ 24.7 µM) |
| CC(C)=CC(=O)C/C(C)=C/CC[C@@]1(C)Oc2oc3cc(O)ccc3c(=O)c2[C@H]1C (relative stereo) [FUKANEFUROCHROMONE B] | 8.9 (≈ 22.4 µM) |

Now from value to compound:

| IC50 [µg/mL] | SMILES |
| --- | --- |
| 11.5 (≈ 29 µM) | CC(C)=CC(=O)/C=C(\C)CCC[C@]1(C)Oc2oc3cc(O)ccc3c(=O)c2[C@H]1C (relative stereo) [FUKANEFUROCHROMONE C] |
| 9.5 (≈ 24 µM) | CC(C)=CC(=O)/C=C(/C)CCC[C@]1(C)Oc2oc3cc(O)ccc3c(=O)c2[C@H]1C (relative stereo) [FUKANEFUROCHROMONE D] |
